For 15 compounds, IC50 and Ki results are on record in patent US11319306B2, “Compositions and methods for treating neurodegenerative diseases” (Azevan Pharmaceuticals, Inc., priority 2014, dated 2022).

Structures are written as SMILES.

In this assay the target is T1, human V1a receptor (Homo sapiens, UniProt P37288).
T1 construct: host or cells: CHO cells (hV1a cell line)
The assay is described as follows: Human vasopressin V1a receptor binding assay (3H-AVP competition, hV1a CHO cells). Particulars: 3H-AVP competition, CHO cells expressing human V1a; for IC50: read-out: V1a Binding Affinity IC50; for Ki: read-out: V1a Ki. Here is the method:
Human vasopression V1a receptor binding assay. A cell line expressing the human V1a receptor in CHO cells (henceforth referred to as the hV1a cell line) was obtained from Dr. Michael Brownstein, NIMH, Bethesda, Md., USA. The hV1a cDNA sequence is described by Thibonnier et al., Journal of Biological Chemistry, 269, 3304-3310 (1994), and the expression method was the same as described by Morel et al. (1992). The hV1a cell line was grown in alpha-MEM with 10% fetal bovine serum and 250 ug/ml G418 (Gibco, Grand Island, N.Y., USA). For competitive binding assay, hV1a cells were plated into 6-well culture plate at 1:10 dilution from a confluency flask, and maintained in culture for at least two days. Culture medium was then removed, cells were washed with 2 ml binding buffer (25 mM Hepes, 0.25% BSA, 1×DMEM, PH=7.0). To each well, 990 μl binding buffer containing InM 3H-AVP was added, and followed by 10 μl series diluted Example compounds dissolved in DMSO. […] 100 nM cold AVP (Sigma) was used to assess non-specific binding. Cells were incubated for 45 minutes at 37° C., assay mixture was removed and each well was washed three times with PBS (pH=7.4). 1 ml 2% SDS was added per well and plates were let sit for 30 minutes. The whole content in a well was transferred to a scintillation vial. Each well was rinsed with 0.5 ml PBS which was then added to the corresponding vial. Scintillation fluid (Ecoscint, National Diagnostics, Atlanta, Ga.) was then added at 3 ml per vial. Samples were counted in a liquid scintillation counter (Beckman LS3801). IC50 values were calculated by Prism Curve fitting software.
All of the alkanedioic esters and amides exemplified in the foregoing examples dissolved in DMSO were tested in this assay. Binding curves were generated according to methods described by Thibonnier et al. (1994). [^3H]-AVP was added to the hV1a cell cultures followed by 10-fold dilutions of each test compound.

T1 sequence (P37288 whole entry): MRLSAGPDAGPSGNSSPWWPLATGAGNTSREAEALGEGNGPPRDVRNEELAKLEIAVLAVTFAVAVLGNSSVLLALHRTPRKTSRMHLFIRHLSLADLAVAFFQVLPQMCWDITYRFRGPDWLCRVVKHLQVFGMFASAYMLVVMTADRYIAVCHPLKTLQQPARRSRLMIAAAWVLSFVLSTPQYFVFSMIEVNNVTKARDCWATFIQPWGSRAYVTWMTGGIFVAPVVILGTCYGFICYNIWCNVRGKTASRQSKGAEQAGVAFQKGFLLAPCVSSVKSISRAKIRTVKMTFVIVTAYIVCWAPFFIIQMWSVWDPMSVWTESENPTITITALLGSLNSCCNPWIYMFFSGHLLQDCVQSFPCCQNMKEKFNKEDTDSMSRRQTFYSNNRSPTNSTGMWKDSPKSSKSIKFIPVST

As a reminder, the IC50 is the midpoint of a concentration-inhibition curve. By Ki is commonly meant a measure of affinity in units of concentration, obtained from inhibition or displacement. In the case of `CCCN1CCN(C(=O)CCC(C(=O)NCc2cccc(C(F)(F)F)c2)N2C(=O)C(N3C(=O)OCC3c3ccccc3)C2C=Cc2ccccc2)CC1` (centres unmarked) [Example 120B], the IC50 is 2.93 nM and the Ki amounted to 1.79 nM.

Consider `O=C(NCc1cccc(C(F)(F)F)c1)C(CCC(=O)N1CCN(CC2CCCCC2)CC1)N1C(=O)C(N2C(=O)OCC2c2ccccc2)C1C=Cc1ccccc1` (centres unmarked) [Example 120], for which the IC50 came to 0.75 nM and the Ki was found to be 0.46 nM.

For `CCN1CCN(C(=O)CCC(C(=O)NC2CCCc3ccccc32)N2C(=O)C(N3C(=O)OCC3c3ccccc3)C2C=Cc2ccccc2)CC1` (centres unmarked) [Example 221BD], the IC50 turned out to be 2.7 nM and the inhibition constant Ki worked out at 1.66 nM.

In the case of `O=C(NCc1cccc(C(F)(F)F)c1)C(CCC(=O)N1CCN(CCC2CCCCC2)CC1)N1C(=O)C(N2C(=O)OCC2c2ccccc2)C1C=Cc1ccccc1` (centres unmarked) [Example 111], the IC50 amounted to 1.31 nM and the Ki is 0.82 nM.

For `O=C(NC1CCc2ccccc21)C(CCC(=O)N1CCN(C2CCCCC2)CC1)N1C(=O)C(N2C(=O)OCC2c2ccccc2)C1C=Cc1ccccc1` (centres unmarked) [Example 221S], the IC50 came out at 5.03 nM and the Ki came to 3.08 nM.

Consider `O=C(NC1(c2ccccc2)CCCC1)[C@H](CCC(=O)N1CCN(Cc2ccccc2)CC1)N1C(=O)[C@@H](N2C(=O)OC[C@@H]2c2ccccc2)[C@H]1/C=C/c1ccccc1` [Example 240], for which the IC50 was 25 nM and the Ki is 15.5 nM.

With `O=C(C(COCc1ccccc1)N1C(=O)C(N2C(=O)OCC2c2ccccc2)C1C=Cc1ccccc1)N1CCN(C2CCCCC2)CC1` (centres unmarked) [Example 232D], the IC50 was 2.04 nM and the Ki turned out to be 1.25 nM.

Turning to `CC(C)(C)OC(=O)NC1CCN(C2CCN(C(=O)CCC(C(=O)NC3(c4ccccc4)CCCC3)N3C(=O)C(N4C(=O)OCC4c4ccccc4)C3C=Cc3ccccc3)CC2)C1` (centres unmarked) [Example 221AX], the IC50 was determined as 83 nM and the Ki was found to be 51 nM.

Consider `CC(NC(=O)C(CC(=O)N1CCC([N+]2([O-])CCCCC2)CC1)N1C(=O)C(N2C(=O)OCC2c2ccccc2)C1C=Cc1ccccc1)c1ccccc1` (centres unmarked) [Example 672], for which the Ki worked out at 1.1 nM.

For the compound `O=C(NCc1cccc(C(F)(F)F)c1)C(C(=O)N1CCC(N2CCCCC2)CC1)N1C(=O)C(N2C(=O)OCC2c2ccccc2)C1C=Cc1ccccc1` (centres unmarked) [Example 37], the IC50 came to 5.5 nM and the Ki was 3.39 nM.

Take `O=C(NC1(c2ccccc2)CCCC1)[C@H](CCC(=O)N1CCN(C2CCCCC2)CC1)N1C(=O)[C@@H](N2C(=O)OC[C@@H]2c2ccccc2)[C@H]1/C=C/c1cccc(Cl)c1` [Example 244]: the IC50 was 3.4 nM and the Ki was 2.1 nM.

Turning to `CC(C)(C)OC(=O)CC(C(=O)NCc1cccc(C(F)(F)F)c1)N1C(=O)C(N2C(=O)OCC2c2ccccc2)C1C=Cc1ccccc1` [Example 19, 2(S)-(tert-Butoxycarbonylmethyl)-2-[3(S)-(4(S)-phenyloxazolidin-2-on-3-yl)-4(R)-(2-styryl)azetidin-2-on-1-yl]acetic acid N-(3-trifluoromethylbenzyl)amide], the IC50 came to 35 nM.

Regarding `CC(C)(C)OC(=O)C(C(=O)NCc1cccc(C(F)(F)F)c1)N1C(=O)C(N2C(=O)OCC2c2ccccc2)C1C=Cc1ccccc1` [Example 18, 2(RS)-(tert-Butoxycarbonyl)-2-[3(S)-(4(S)-phenyloxazolidin-2-on-3-yl)-4(R)-(2-styryl)azetidin-2-on-1-yl]acetic acid N-(3-trifluoromethylbenzyl)amide], the IC50 is 35 nM.

On to `O=C(N[C@@H]1CCCc2ccccc21)[C@H](CCC(=O)N1CCN(C2CCCCC2)CC1)N1C(=O)[C@@H](N2C(=O)OC[C@@H]2c2cccc(Cl)c2)[C@H]1/C=C/c1cccc(Cl)c1` [Example 251], for which the IC50 worked out at 0.5 nM and the Ki was determined as 0.3 nM.

For `O=C(NC(c1ccccc1)C(F)(F)F)C(CC(=O)N1CCC(N2CCCCC2)CC1)N1C(=O)C(N2C(=O)OCC2c2ccccc2)C1C=Cc1ccccc1` (single isomer, unassigned) [Example 626], the Ki came to 0.27 nM.
